Read-outs that look alike come from different tables or passages of the source.
Columns and labels:
ME 180 cell line [1] = assay: Viability (tetrazolium dye, MTS); type: cell-based; conditions: Homo sapiens, 96 hours, mitochondrial function / viability
ME 180 cell line [2] = assay: Incorporation of 3H-thymidine; type: cell-based; conditions: Homo sapiens, 96 hours, radiolabeled thymidine incorporation, read-out: TdR IC50
AML-193 cell line [3] = assay: Viability (tetrazolium dye, MTS); type: cell-based; conditions: Homo sapiens, 96 hours, mitochondrial function / viability
RPMI 8226 cell line [4] = assay: Incorporation of 3H-thymidine; type: cell-based; conditions: Homo sapiens, 96 hours, radiolabeled thymidine incorporation, read-out: TdR IC50
AML-193 cell line [5] = assay: Incorporation of 3H-thymidine; conditions: Homo sapiens, 96 h, read-out: TdR IC50 (nM)
TPA induction of ODC = assay: Ornithine decarboxylase (ODC) assay, inhibition of TPA induction of ODC; type: cell-based; conditions: concentration required to inhibit the TPA induction of ODC by 80 percent
RPMI 8226 cell line [6] = assay: Viability (tetrazolium dye, MTS); type: cell-based; conditions: Homo sapiens, 96 hours, mitochondrial function / viability
RARα [7] = target: T1, RARα (Homo sapiens, UniProt P10276); assay: Receptor binding (competition with tritiated retinoids); conditions: from IC50 by Cheng-Prussof equation
T1 sequence (P10276 1-462): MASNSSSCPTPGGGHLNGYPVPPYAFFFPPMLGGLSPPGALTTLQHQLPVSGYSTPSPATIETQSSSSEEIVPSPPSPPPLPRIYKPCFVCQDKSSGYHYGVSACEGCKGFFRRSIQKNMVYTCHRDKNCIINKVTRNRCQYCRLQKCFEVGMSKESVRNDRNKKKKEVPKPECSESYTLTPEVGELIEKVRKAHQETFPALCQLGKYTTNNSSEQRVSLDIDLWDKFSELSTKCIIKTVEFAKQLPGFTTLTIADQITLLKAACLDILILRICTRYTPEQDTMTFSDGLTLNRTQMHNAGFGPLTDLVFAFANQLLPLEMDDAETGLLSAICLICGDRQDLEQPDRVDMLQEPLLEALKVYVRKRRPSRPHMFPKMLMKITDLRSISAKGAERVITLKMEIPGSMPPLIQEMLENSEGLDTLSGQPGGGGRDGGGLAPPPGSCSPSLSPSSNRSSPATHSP

RARβ [8] = target: T2, RARβ (Homo sapiens, UniProt P10826); assay: biochemical
T2 sequence (P10826 1-455): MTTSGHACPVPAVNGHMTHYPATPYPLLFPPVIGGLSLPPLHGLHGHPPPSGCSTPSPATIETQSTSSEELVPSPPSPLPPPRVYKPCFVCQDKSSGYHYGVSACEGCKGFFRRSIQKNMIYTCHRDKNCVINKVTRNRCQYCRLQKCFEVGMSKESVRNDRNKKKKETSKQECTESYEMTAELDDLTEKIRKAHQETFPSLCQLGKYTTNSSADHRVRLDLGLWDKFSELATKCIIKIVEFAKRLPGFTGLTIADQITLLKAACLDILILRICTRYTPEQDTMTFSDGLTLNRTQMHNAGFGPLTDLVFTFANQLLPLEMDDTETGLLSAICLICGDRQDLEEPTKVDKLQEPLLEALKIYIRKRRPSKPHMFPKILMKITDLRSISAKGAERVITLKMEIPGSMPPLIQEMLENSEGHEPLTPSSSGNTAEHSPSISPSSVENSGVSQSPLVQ

RARα [9] = target: T1, RARα; assay: Co-transfection assay; type: cell-based; conditions: read-out: RARα Pot
RXRγ [10] = target: T3, RXRγ (Mus musculus, UniProt P28705); assay: Co-transfection assay; type: cell-based; conditions: read-out: RXRγ Pot
T3 sequence (P28705 1-463): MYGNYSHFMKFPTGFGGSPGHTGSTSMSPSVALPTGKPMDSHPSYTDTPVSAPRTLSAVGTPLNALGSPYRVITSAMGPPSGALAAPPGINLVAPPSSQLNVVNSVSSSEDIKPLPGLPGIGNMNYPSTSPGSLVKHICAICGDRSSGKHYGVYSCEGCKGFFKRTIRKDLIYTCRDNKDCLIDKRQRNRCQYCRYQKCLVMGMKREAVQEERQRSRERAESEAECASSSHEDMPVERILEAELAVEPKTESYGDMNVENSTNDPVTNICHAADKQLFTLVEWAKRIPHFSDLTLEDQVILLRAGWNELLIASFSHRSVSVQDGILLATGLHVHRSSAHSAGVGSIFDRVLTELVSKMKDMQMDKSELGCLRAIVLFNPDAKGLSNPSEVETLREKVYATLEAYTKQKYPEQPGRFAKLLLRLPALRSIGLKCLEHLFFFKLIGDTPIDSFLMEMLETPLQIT

RXRα [11] = target: T4, RXRα (Homo sapiens, UniProt P19793); assay: Co-transfection assay; type: cell-based; conditions: read-out: RXRα Pot
T4 sequence (P19793 1-462): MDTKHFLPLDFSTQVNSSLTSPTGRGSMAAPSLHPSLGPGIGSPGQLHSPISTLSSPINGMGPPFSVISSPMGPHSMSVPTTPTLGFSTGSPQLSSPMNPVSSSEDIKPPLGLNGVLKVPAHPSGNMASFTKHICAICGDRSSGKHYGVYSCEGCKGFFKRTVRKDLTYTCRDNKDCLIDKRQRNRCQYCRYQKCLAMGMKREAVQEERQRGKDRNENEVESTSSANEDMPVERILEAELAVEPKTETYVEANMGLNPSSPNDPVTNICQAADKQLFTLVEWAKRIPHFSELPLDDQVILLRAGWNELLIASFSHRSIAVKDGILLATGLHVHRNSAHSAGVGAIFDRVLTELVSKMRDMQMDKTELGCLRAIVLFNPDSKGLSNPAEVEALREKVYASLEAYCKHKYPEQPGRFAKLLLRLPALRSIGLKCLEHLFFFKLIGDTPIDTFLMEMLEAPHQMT

RXRα [12] = target: T4, RXRα; assay: Receptor binding (competition with tritiated retinoids); conditions: from IC50 by Cheng-Prussof equation
RARβ [13] = target: T5, RARβ (Homo sapiens, UniProt P10826); assay: Co-transfection assay; type: cell-based; conditions: read-out: RARβ Pot
T5 sequence (P10826 1-448 isoform P10826-2): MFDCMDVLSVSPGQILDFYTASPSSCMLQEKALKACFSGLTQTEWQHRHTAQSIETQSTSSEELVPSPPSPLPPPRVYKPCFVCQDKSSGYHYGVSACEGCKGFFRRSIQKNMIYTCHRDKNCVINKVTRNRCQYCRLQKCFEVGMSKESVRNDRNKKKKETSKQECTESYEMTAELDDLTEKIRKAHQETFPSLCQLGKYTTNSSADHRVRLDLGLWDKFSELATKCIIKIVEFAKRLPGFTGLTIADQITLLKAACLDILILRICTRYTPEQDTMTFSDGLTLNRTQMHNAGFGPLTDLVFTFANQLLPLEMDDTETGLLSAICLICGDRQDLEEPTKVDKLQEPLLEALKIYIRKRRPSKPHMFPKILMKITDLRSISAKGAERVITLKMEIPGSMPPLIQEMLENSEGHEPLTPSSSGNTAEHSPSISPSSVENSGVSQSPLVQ

RXRγ [14] = target: T3, RXRγ; assay: biochemical
RARγ = target: T6, RARγ (Homo sapiens, UniProt P13631); assay: Co-transfection assay; type: cell-based; conditions: read-out: RARγ Pot
T6 sequence (P13631 1-454): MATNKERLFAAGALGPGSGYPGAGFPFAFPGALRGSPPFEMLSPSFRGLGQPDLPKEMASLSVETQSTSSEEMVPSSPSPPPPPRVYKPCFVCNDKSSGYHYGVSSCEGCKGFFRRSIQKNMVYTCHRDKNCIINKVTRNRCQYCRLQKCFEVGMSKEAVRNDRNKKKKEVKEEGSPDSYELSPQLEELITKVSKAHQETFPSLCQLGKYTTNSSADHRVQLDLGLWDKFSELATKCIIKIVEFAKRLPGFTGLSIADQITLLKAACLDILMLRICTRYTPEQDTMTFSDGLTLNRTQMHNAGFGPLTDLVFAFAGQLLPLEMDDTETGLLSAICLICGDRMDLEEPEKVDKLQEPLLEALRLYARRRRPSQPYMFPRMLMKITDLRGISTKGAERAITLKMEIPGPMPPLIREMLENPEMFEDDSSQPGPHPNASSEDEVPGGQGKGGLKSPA

RXRβ = target: T7, RXRβ (Mus musculus, UniProt P28704); assay: Co-transfection assay; type: cell-based; conditions: read-out: RXRβ Pot
T7 sequence (P28704 1-520): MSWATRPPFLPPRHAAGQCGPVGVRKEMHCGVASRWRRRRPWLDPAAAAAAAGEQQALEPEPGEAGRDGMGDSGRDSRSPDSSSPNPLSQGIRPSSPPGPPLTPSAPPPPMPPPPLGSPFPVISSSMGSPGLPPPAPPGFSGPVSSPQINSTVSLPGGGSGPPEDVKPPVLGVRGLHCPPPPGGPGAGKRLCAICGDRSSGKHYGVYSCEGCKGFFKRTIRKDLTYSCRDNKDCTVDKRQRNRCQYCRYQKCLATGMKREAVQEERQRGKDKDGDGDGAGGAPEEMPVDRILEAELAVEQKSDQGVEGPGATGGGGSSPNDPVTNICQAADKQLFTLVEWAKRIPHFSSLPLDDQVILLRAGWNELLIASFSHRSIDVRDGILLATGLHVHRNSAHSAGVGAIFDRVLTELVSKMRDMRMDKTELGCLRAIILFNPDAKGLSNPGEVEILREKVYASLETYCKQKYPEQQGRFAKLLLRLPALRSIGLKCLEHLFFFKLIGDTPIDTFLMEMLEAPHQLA

Row | SMILES | IC50 (ME 180 cell line [1]) [nM] | IC50 (ME 180 cell line [2]) [nM] | IC50 (AML-193 cell line [3]) [nM] | IC50 (RPMI 8226 cell line [4]) [nM] | IC50 (AML-193 cell line [5]) [nM] | IC80 (TPA induction of ODC) [nM] | IC50 (RPMI 8226 cell line [6]) [nM] | Kd (RARα [7]) [nM] | Kd (RARβ [8]) [nM] | EC50 (RARα [9]) [nM] | EC50 (RXRγ [10]) [nM] | EC50 (RXRα [11]) [nM] | Kd (RXRα [12]) [nM] | EC50 (RARβ [13]) [nM] | Kd (RXRγ [14]) [nM] | EC50 (RARγ) [nM] | EC50 (RXRβ) [nM] | EC50 (RARα [9]; CV-1 cells, pRShRARα, D-MTV-LUC reporter, 40 hours, potency = EC50) [nM]
1 | C/C(=C\c1ccc(C(=O)O)cc1)c1ccc2c(c1)C(C)(C)CCC2(C)C [TTNPB, (E)-4-[2-(5,6,7,8-tetrahydro-5,5,8,8-tetramethyl-2-napthalenyl)-1-propenyl]benzoic acid, reference compound] | 187 | 0.4 | 1000 | 0.2 | 0.1 | 0.09 | 10 | – | – | – | – | – | – | – | – | – | – | –
2 | C/C(=C/C=C/C(C)=C/C(=O)O)c1cc(C(C)(C)C)cc(C(C)(C)C)c1 [Compound 10, (2E, 4E, 6Z)-7-(3,5-di-t-butylphenyl)-3-methylocta-2,4,6-trienoic acid] | 370 | 62 | 1000 | 60 | 0.01 | 6.62 | 570 | 59 | 75 | 59 | 56 | 127 | 4 | 23 | 9 | – | – | –
3 | COc1ccc(/C(C)=C/C=C/C(C)=C/C(=O)O)cc1OC [A, (2E,4E,6E)-3-methyl-7-(3,4-dimethoxyphenyl)octa-2,4,6-trienoic acid, reference compound] | – | – | – | – | – | – | – | 312 | – | > 10000 | > 10000 | > 10000 | – | 1480 | – | > 10000 | > 10000 | –
4 | CCOC(=O)/C=C(C)/C=C/C=C(\C)c1cc(C(C)(C)C)cc(C(C)(C)C)c1 [Compound 7, Ethyl (2E, 4E, 6E)-7-(3,5-di-t-butylphenyl)-3-methylocta-2,4,6-trienoate] | – | – | – | – | – | 4.73 | – | – | – | – | – | – | – | – | – | – | – | –
5 | CC(/C=C/C=C(\C)c1cc(C(C)(C)C)cc(C(C)(C)C)c1)=C\C(=O)O [Compound 9, (2E, 4E, 6E)-7-(3,5-Di-t-butylphenyl)-3-methylocta-2,4,6-trienoic acid] | 1.3 | 0.1 | 1000 | 0.3 | 0.1 | 0.93 | 253 | 1 | 2 | – | > 10000 | > 10000 | 270 | 1 | 496 | – | – | 4
6 | CCOC(=O)/C=C(C)/C=C/C=C(/C)c1cc(C(C)(C)C)cc(C(C)(C)C)c1 [Compound 8, Ethyl (2E,4E, 6Z)-7-(3,5-di-t-butylphenyl)-3-methylocta-2,4,6-trienoate] | – | – | – | – | – | 152 | – | – | – | – | – | – | – | – | – | – | – | –
7 | CC1=C(/C=C/C(C)=C/C=C/C(C)=C/C(=O)O)C(C)(C)CCC1 [ATRA, all-trans retinoic acid, reference compound] | 890 | – | 1000 | – | – | – | 756 | – | – | – | – | – | – | – | – | – | – | –

Reference: patent EP0800503B1, “NOVEL TRIENOIC RETINOID COMPOUNDS AND METHODS” (LIGAND PHARMACEUTICALS, INC., priority 1994, dated 1996)
